Data published in BindingDB's records for doi:10.1016/0197-0186(94)90100-7 (Rowett Research Institute, 1994).

target: T1, Melatonin receptor (Oryctolagus cuniculus, UniProt Q9BE38)
T1 sequence (Q9BE38 whole entry): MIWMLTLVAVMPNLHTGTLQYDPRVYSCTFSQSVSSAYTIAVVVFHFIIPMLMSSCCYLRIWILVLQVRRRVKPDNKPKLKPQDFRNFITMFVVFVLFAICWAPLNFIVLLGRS

Row | SMILES | Ki [nM]
1 | COc1ccc2[nH]cc(CCO)c2c1 | > 10000
2 | CC(=O)NCCc1c[nH]c2ccc(O)cc12 [N-Acetyltryptamine,5-Hydroxy] | 3000
3 | CC(=O)NCCc1c[nH]c2ccccc12 [N-Acetyltryptamine] | 1600
4 | COc1cc2c(CCNC(C)=O)c[nH]c2cc1O [melatonin, 6-Hydroxy] | 74
5 | COc1cc2[nH]cc(CCNC(C)=O)c2cc1OC [melatonin, 6-Methoxy] | 460
